These results are taken from patent publication US4241184A, “Secondary alcohol dehydrogenase enzyme and use thereof” (priority 1979, dated 1980).

Read-outs that look alike come from different tables or passages of the source.

The test system of assay [1] is Methylosinus trichosporium OB3b (NRRL B-11,196). The experiment in a line: Effect of inhibitors on epoxidation of propylene and hydroxylation of methane, cell-containing enzyme preparation. In kind it is cell-based. The conditions noted are these: NRRLB11, 1 h.
The test system of assay [2] is Methylococcus capsulatus (CRL Ml, NRRL B-11,219). Described as above. In kind it is cell-based. The conditions noted are these: Methylococcus capsulatus, NRRLB11, 1 h.
In assay [3] the test system is Methylobacterium organophilum (CRL 26, NRRL B-11,222). Described as above. In kind it is cell-based. Particulars: NRRLB11, 1 h.
In assay [4] the test system is secondary alcohol dehydrogenase. The experiment in a line: Purified yeast secondary alcohol dehydrogenase: substrates, electron acceptors, inhibitors, stoichiometry. The format is biochemical, Pichia sp. NRRL Y-11,328. As for the experimental part: Large scale cultures of Pichia sp. NRRL Y-11,328 were grown with aeration at 30° C. in a 14-liter New Brunswick f fermentor in a mineral salt medium containing methanol (0.4%, v/v) as the sole carbon source. The cells (200 g., wet weight) were suspended in […] sodium phosphate buffer, pH 7.0, containing 1 mM dithiothreitol (buffer A), and crude extracts were prepared as described previously. To the crude extracts, 18 ml. of protamine sulfate solution [2% solution in 0.1 M tris (hydroxymethyl) aminomethane (tris) base] was added dropwise with continuous stirring. After standing for 30 min., the extracts were centrifuged at 20,000×g. for 60 min. The supernatant solution was fractionated with solid ammonium sulfate. Extracts were brought to 50% of saturation with respect to ammonium sulfate by addition of 313 g. of the salt per liter of extract. Precipitated proteins was removed by centrifugation, and 137 g. of ammonium sulfate was added per liter of the supernatant liquid to bring it to 70% of saturation. Material precipitating between 50 and 70% of saturation was collected by centrifugation and dissolved in buffer A. This preparation was dialyzed overnight against buffer A, and the dialyzed material was applied to a DEAE-cellulose column (5×40 cm) that had been equilibrated with buffer A. The sample was washed with 200 ml. of buffer A and eluted with 2 liters of buffer A that contained NaCl in a linear gradient running from a concentration of 0 to 0.5 M. Fractions of 15 ml. were collected. Fractions containing secondary alcohol dehydrogenase activity were pooled and were termed DEAE-cellulose eluate. The DEAE-cellulose eluate was concentrated by ammonium sulfate fractionation.
Secondary alcohol dehydrogenase activity was measured spectrophotometrically at 340 nm with a NAD^+ as an electron acceptor. The reaction mixture, in a total 3.0 ml., contained 50 mM phosphate buffer, pH 8.0, 5μ moles NAD^+, crude extracts, and subtrate. The reactions were started by addition of 100 μl of 0.1 M substrate and the rate of NAD^+ reduction was measured. Protein concentration was determined by the method of Lowry et al.
The substrate specificity of the purified secondary alcohol dehydrogenase was examined spectrophotometrically.

Assay [5] relates to P(40) particulate fraction of Methylosinus sp. (CRL-15, NRRL B-11,202). The experiment in a line: Oxidation of n-alkenes and n-alkanes by P(40) particulate fraction. The format is biochemical. The conditions noted are these: substrate oxidized to its epoxide or alcohol, 30° C.
Assay [6] has as its system secondary alcohol dehydrogenase (SADH). The experiment in a line: Purified secondary alcohol dehydrogenase activity (formation of reduced NAD). The format is biochemical, Pseudomonas sp. ATCC 21439. Here is the method: Secondary alcohol dehydrogenase (SADH) from an obligate methanol utilizer, Pseudomonas sp. ATCC 21439 was purified as follows. […] 0.05 M sodium phosphate buffer, pH 7.0 with 0.5 mM dithiothretol (buffer A) and were disrupted sonically (5×1 min.). The crude extract was separated by centrifugation. The crude extract was heat-treated at 50° C. in a water bath for 10 minutes. The resulting precipitate was removed by centrifugation. To the supernatant solution, 25 ml of protamine sulfate solution (2% solution in 0.1 M Tris base) was added dropwise with continuous stirring. After standing for 30 minutes, the extract was centrifuged. The supernatant solution was fractionated with solid ammonium sulfate. The material precipitating between 30 and 60% saturation was collected and was dialized overnight against buffer A. The The dialized material was applied to a DEAE-cellulose column (3 cm by 35 cm) that had been equilibrated with buffer A. The secondary alcohol dehydrogenase activity was eluted in the void volume. This DEAE-cellulose eluate was concentrated by ammonium sulfate fractionation. Material precipitating between 30 and 50% ammonium sulfate saturation was collected by centrifugation and dialyzed overnight against A. This fraction was further washed and filtered through an Amicon unit with XM 50 membrane. The concentrated fraction (6 ml) inside the Amicon unit was applied to an Affi-Gel Blue column (0.8 cm×18 cm) which had been equilibrated with buffer A for affinity chromatography. The column was washed overnight with buffer A (0.18 ml./min.) and then was eluted with buffer A containing 5 mM NAD. Each 1 ml. fraction was collected.
The purified secondary alcohol dehydrogenase enzyme (SADH) may be used directly for converting C3 -C6 secondary alcohols to the corresponding methyl ketones by the procedures described above; however, a source of NAD^+ must be added to the reaction medium. One can determine the NAD-linked secondary alcohol dehydrogenase activity with a fluorescence spectrophotometer (Perkin Elmer, Model MPF 44A) by following the formation of reduced NAD (Ex 340 nm, Em 460 nm). The assay system (3 ml.) will typically contain: sodium phosphate buffer pH 7.0, 150 μmol; NAD 1.0 μmol; a given amount of enzyme preparation; and 20 μmol secondary alcohol. The reaction is started by the addition of secondary alcohol. One unit of SADH enzyme activity represents the reduction of one nmole NAD per minute.
The effect of metal-chelating agents and thioreagents on the activity of the purified SADH enzyme were studied. […] The possibility of ethanol or n-propanol as an inhibitor was studied.

Setting [7] is: read-out: % Inhibition, Epoxidation.
The mark [8] stands for this setting: read-out: % Inhibition, Hydroxylation.
The mark [9] stands for this setting: examined spectrophotometrically.
[10] abbreviates: purified SADH, each inhibitor 1 mM, measured spectrofluorometrically.

The inhibition is the change of the read-out against control, counted positive when it falls.

Consider `c1c[nH]cn1` [Imidazole], for which the inhibition at 1000 µM in assay [1] (setting [7]) stood at 95%; in assay [1] (setting [8]), 90%; in assay [2] (setting [7]), 95%; in assay [2] (setting [8]), 95%; in assay [3] (setting [7]), 100%; in assay [3] (setting [8]), 100%. For the same compound, the “inhibition of secondary alcohol dehydrogenase activity” value in assay [4] is “strongly inhibited”.
In the case of `CCCCCO` [pentan-1-ol], in assay [4] (setting [9]), the “oxidation by the purified secondary alcohol dehydrogenase” value is on record as “not oxidized”.
As to `C=C` [Ethylene], the “Rate of Product Formation” value in assay [5] is given as 1.27 μ moles/hr/mg of protein.
In the case of `CCCCCCC(C)O` (stereo not drawn) [2-octanol], the “oxidation by the purified secondary alcohol dehydrogenase” value in assay [4] (setting [9]) was “not oxidized”.
For the compound `CCC(O)CO` (stereo not drawn) [butane 1,2-diol], the “relative percent rate of oxidation by SADH” value (“relative percent rate” for short) in assay [6] (2-butanol = 100%) was “not oxidized”. Also, in assay [4] (setting [9]), the “oxidation by the purified secondary alcohol dehydrogenase” value was “not oxidized”.
With `O=C(O)c1cc(SSc2ccc([N+](=O)[O-])c(C(=O)O)c2)ccc1[N+](=O)[O-]` [5,5'-dithiobis(2-nitrobenzoic acid)], the “% inhibition of SADH activity” value in assay [6] (setting [10]) is 100%; in assay [6] (purified SADH, each inhibitor 1 mM, measured spectrofluorometrically, listed as 5,5'-dithiobis (2-nitrobenzoic acid)) it was “inhibited”.
For the compound `CCCCC(C)O` (stereo not drawn) [2-hexanol], in assay [6], the “substrate specificity of purified SADH” value is “lower rate”. In assay [6] (2-butanol = 100%), the “relative percent rate” value came out at 2%. In addition, in assay [4] (setting [9]), the “oxidation by the purified secondary alcohol dehydrogenase” value is “catalyzed the oxidation”.
In the case of `CCCCCC(C)O` (stereo not drawn) [2-Heptanol], the “oxidation by the purified secondary alcohol dehydrogenase” value in assay [4] (setting [9]) is reported as “not oxidized”.
In the case of `O=Cc1ccccc1` [benzaldehyde], in assay [6] (2-butanol = 100%), the “relative percent rate” value is given as “not oxidized”.
Consider `CCCCO` [butan-1-ol], for which, in assay [4], the “oxidation by the purified secondary alcohol dehydrogenase” value is given as “not oxidized”.
Turning to `[Mn+2]` [Mn^++], the “% inhibition of SADH activity” value in assay [6] (setting [10]) is on record as 0%.
On to cytochrome c, for which the “electron acceptor for the purified enzyme” value in assay [4] is “could not act as electron carrier”.
In the case of `CC(O)C(C)O` (stereo not drawn) [butane 2,3-diol], in assay [6], the “substrate specificity of purified SADH” value is recorded as “lower rate”. For the same compound, in assay [6] (2-butanol = 100%), the “relative percent rate” value amounted to 2.5%.
As to `O=C(O)CCC(=O)O` [succinic acid], the “relative percent rate” value in assay [6] (2-butanol = 100%) is listed as “not oxidized”.
For `CCO` [ethanol], the “% inhibition of SADH activity” value in assay [6] is given as “did not inhibit”. Besides, the “oxidation by the purified secondary alcohol dehydrogenase” value in assay [4] is recorded as “not oxidized”.
For the compound `CC` [Ethane], the “Rate of Product Formation” value in assay [5] is listed as 3.2 μ moles/hr/mg of protein.
Regarding `CC(C)O` [2-propanol], the “substrate specificity of purified SADH” value in assay [6] is recorded as “highest”. In addition, the “relative percent rate” value in assay [6] (2-butanol = 100%) was found to be 85%. In assay [4], the “NAD^+ Reduced” value is 5.4 µmol and the Product formed was 5.5 µmol. Also, the “oxidation by the purified secondary alcohol dehydrogenase” value in assay [4] (setting [9]) is “catalyzed the oxidation”.
Regarding `N#C[S][Hg][S]C#N` [mercuric thiocyanate], the “inhibition of secondary alcohol dehydrogenase activity” value in assay [4] is reported as “inhibited”.
Regarding `CO` [methanol], the “oxidation by the purified secondary alcohol dehydrogenase” value in assay [4] (setting [9]) is “not oxidized”.
As for `C=CC=C` [Butadiene], the “Rate of Product Formation” value in assay [5] is 0.63 μ moles/hr/mg of protein.
With `[Fe+3]` [ferric], the “% inhibition of SADH activity” value in assay [6] (setting [10]) came to 35%.
On the same count and under the same terms, with `[Ni+2]` [nickel] the figure was 20%.
In the case of `C=O` [formaldehyde], the “relative percent rate” value in assay [6] is on record as “not oxidized”.
In the case of `OC1CCCCC1` [cyclohexanol], in assay [6], the “substrate specificity of purified SADH” value is “lower rate”. In addition, the “relative percent rate” value in assay [6] (2-butanol = 100%) is recorded as 4%.
Take `Oc1ccccc1` [phenol]: the “relative percent rate” value in assay [6] is recorded as “not oxidized”.
Take `CCN1C(=O)C=CC1=O` [N-ethylmalemide]: the “% inhibition of SADH activity” value in assay [6] (setting [10]) is reported as 6%; in assay [6] (purified SADH, each inhibitor 1 mM, measured spectrofluorometrically, listed as N-ethylmaleimide), “not inhibited”.
With `[Fe+2]` [ferrous], the “% inhibition of SADH activity” value in assay [6] (setting [10]) stood at 50%.
Turning to `CC=O` [acetaldehyde], the “substrate specificity of purified SADH” value in assay [6] was “lower rate”. For the same compound, the “relative percent rate” value in assay [6] (2-butanol = 100%) is reported as 4%.
Take `O=[N+]([O-])[O-].[Ag+]` [silver nitrate]: the “inhibition of secondary alcohol dehydrogenase activity” value in assay [4] is on record as “inhibited”.
Take `CCCC(C)O` (stereo not drawn) [2-pentanol]: in assay [6], the “substrate specificity of purified SADH” value was “lower rate”. Also, the “relative percent rate” value in assay [6] (2-butanol = 100%) was found to be 5%. Moreover, in assay [4] (setting [9]), the “oxidation by the purified secondary alcohol dehydrogenase” value is “catalyzed the oxidation”.
Turning to `[Cu+2]` [cupric], the “% inhibition of SADH activity” value in assay [6] (setting [10]) stood at 25%.
Consider `CC(C)CO` [isobutanol], for which, in assay [6] (2-butanol = 100%), the “relative percent rate” value is listed as “not oxidized”.
As for `CC(O)CCO` (stereo not drawn) [butane 1,3-diol], the “substrate specificity of purified SADH” value in assay [6] is recorded as “lower rate”. Also, the “relative percent rate” value in assay [6] (2-butanol = 100%) is listed as 2%. Further, the “oxidation by the purified secondary alcohol dehydrogenase” value in assay [4] (setting [9]) is “not oxidized”.
Take `[Co+2]` [Co^++]: the “% inhibition of SADH activity” value in assay [6] (setting [10]) is reported as 0%.
Consider `[Zn+2]` [Zn^++], for which the “% inhibition of SADH activity” value in assay [6] (setting [10]) was 0%; in assay [6] (purified SADH, each inhibitor 1 mM, measured spectrofluorometrically, listed as zinc), “did not stimulate”.
For `[Mg+2]` [Mg^++], the “% inhibition of SADH activity” value in assay [6] (setting [10]) came out at 0%.
Regarding `CC(O)CO` (stereo not drawn) [1,2-propandiol], in assay [4] (setting [9]), the “oxidation by the purified secondary alcohol dehydrogenase” value was “not oxidized”.
Regarding `C=CCC` [1-Butene], in assay [5], the “Rate of Product Formation” value was 2.18 μ moles/hr/mg of protein.
Take `CCCO` [n-propanol]: in assay [6], the “% inhibition of SADH activity” value is reported as “did not inhibit”. Besides, the “oxidation by the purified secondary alcohol dehydrogenase” value in assay [4] was “not oxidized”.
On to `O=C(O)c1cc[c]([Hg+])cc1.[OH-]` [p-hydroxymercuribenzoate], for which the “% inhibition of SADH activity” value in assay [6] (setting [10]) is given as 100%. The “inhibition of secondary alcohol dehydrogenase activity” value in assay [4] is listed as “strongly inhibited”.
